Data published in patent publication US7838562B2, “Methods of inhibiting vascular permeability and apoptosis” (University of Connecticut, priority 2004, dated 2010).
Read-outs that look alike come from different tables or passages of the source.

What was measured:
[1] = system: kinase activity present in HUVEC (sphingosine kinase); test: in vitro kinase assay with total cell extract from HUVEC; assay type: biochemical, human
Description: To confirm that FTY720 and (R)-AAL are phosphorylated by endothelial cells, an in vitro kinase assay was performed with both total cell extract and conditioned medium from HUVEC. […] Cells were scraped at 4° C. with 400 μl of 25 mM HEPES pH 7.5, […], 1× protease inhibitor mixture, and disrupted by brief sonication. Cellular homogenates were centrifuged for 10 minutes, 4° C. at 20,000×g. In the kinase assay, 300 μl of conditioned medium (derived from 5×10^5 cells for 3 hours of incubation) or 10 μg of total cell extract from HUVEC were used as a source of kinase activity. […] Lipids were extracted and samples were resuspended in 50 μl of chloroform. Lipids were resolved by TLC on Silica Gel G60 using 1-butanol/acetic acid/water (60/20/20 volume/volume) buffer and quantified with a PhosphorImager (Molecular Dynamics).

[2] = system: HUVEC; test: HUVEC migration (96 well chemotaxis microchamber); details: for migration induced by conditioned medium: compound incubated with HUVEC for 3 hours, conditioned medium used as chemoattractant; for induction of endothelial cell migration: compound used directly as chemoattractant, 4 hours; for fold induction at 0.01 µM: read-out: migration, fold induction at maximum effect; for induced migration in presence of Pertussis toxin: Pertussis toxin 200 ng/mL
Description: Briefly, polycarbonate filters with a pore size of 8 micrometers (μm) were coated with 5 micrograms per milliliter (μg/ml) fibronectin. […] Approximately 5×10^4 cells suspended in M199 with 0.1% bovine serum albumin were placed in the upper compartment. The cells were allowed to migrate for 4 hours at 37° C. in a humidified chamber with 5% CO2. After the incubation period, the filter was removed, and cells were stained in 0.1% crystal violet and eluted with 10% acetic acid in 96-well plates.
After incubation, conditioned medium was removed, centrifuged at 1,000×g for 10 minutes, and used in the migration assay.

[3] = system: VE-cadherin; test: VE-cadherin localization by immunofluorescence in HUVEC; assay type: cell-based, human; details: 30 minutes; 10 nM (S1P 100 nM)
Description: The effects of FTY720-P and (R)-AFD on the localization of VE-cadherin were studied using immunofluorescence analysis. In this study, 2×10^5 cells were plated in 35 millimeter glass bottom petri dishes. Three days later, the cells were washed and serum starved for 3 hours before treatments. Then, the cells were washed with ice-cold PBS, fixed, and immunofluorescence analysis with VE-cadherin antibody was conducted (1 μg/ml Santa Cruz). The primary antibody staining was visualized with Rhodamine-conjugated goat anti-mouse (1:1000, Cappel) IgG. Confocal microscopy was conducted on a Zeiss LSM 510 laser-scanning confocal microscope. Rhodamine fluorescence was excited using a 543 nm Helium/Neon laser and emitted fluorescence was detected with a […] long-pass filter.

[4] = molecular target: T1, SK2 (Mus musculus, UniProt Q9JIA7)
T1 sequence (Q9JIA7 1-617): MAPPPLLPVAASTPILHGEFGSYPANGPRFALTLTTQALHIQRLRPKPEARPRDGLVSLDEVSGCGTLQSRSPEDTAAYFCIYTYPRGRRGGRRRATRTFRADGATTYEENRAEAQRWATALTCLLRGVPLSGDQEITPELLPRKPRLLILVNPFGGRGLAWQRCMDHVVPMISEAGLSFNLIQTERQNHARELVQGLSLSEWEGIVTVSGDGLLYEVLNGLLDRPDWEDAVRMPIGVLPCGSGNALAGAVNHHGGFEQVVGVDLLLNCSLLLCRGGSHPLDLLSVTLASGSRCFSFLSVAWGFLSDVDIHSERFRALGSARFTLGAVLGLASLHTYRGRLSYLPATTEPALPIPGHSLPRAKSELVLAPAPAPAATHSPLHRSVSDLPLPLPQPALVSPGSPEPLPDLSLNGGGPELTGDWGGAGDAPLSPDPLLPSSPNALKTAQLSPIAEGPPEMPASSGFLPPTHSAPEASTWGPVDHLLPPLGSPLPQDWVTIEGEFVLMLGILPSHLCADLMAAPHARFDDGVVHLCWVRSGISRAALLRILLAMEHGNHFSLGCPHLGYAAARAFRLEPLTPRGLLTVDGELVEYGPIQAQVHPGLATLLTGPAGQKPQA

[5] = system: VEGF-induced vascular permeability; test: mouse ear microvascular permeability assay (VEGF-induced); assay type: in vivo, FVB/N mice; details: mice, single oral administration (gavage, 50 μg) 5 hours prior
Description: The role of plasma borne FTY720-P or (R)-AFD in the regulation of vascular permeability was tested in vivo. In order to test this possibility, an in vivo vascular permeability model was used in FTY720, (R)-AFD or (S)-AAL-pretreated mice. […] Five hours post-gavage, animals were anesthetized with 2% Avertin™ (0.5 cc/20 g) and infused through the tail vein with 100 μl FITC-dextran (5 mg/ml, 165 kDa). Animals were placed on a warming table under a fluorescent dissecting microscope (Zeiss STV11, Zeiss, Inc.) and the central vessels in the ear were imaged. Control saline or mouse vascular endothelial growth factor (mVEGF, 10 ng/ml) was injected subdermally into the middle ear using a 30 gauge needle (30 μl). Ear vasculature was then imaged with fixed exposure times in a stationary position from 5 minutes to 120 minutes post-injection. Fluorescence images were then quantified using pixel-based threshold in ImageProPlus (Media Cybernetics, Inc.) and quantified.

[6] = system: phospho-ERK-1/2; test: Western blot of ERK-1/2 phosphorylation in HUVEC; assay type: cell-based, human; details: for increase in ERK-1/2 phosphorylation levels: 100 nM, after 5 minutes; for time of maximum ERK phosphorylation levels: data not shown; for ERK-1 and ERK-2 phosphorylation with Pertussis toxin: incubation with Pertussis toxin
Excerpt: (§1) Endothelial cell morphogenesis, a phenomenon that requires endothelial cell migration, survival and adherens junction assembly, is mediated by the ligand-dependent activation of S1P1 and S1P3 receptors. […] The effects of FTY720-P and analogs on Akt and ERK phosphorylation in HUVEC were studied in a Western blot analysis. Confluent cultures of HUVEC cells were serum starved for two hours in 0.1% ffa-BSA M199 before treatments. Then, they were washed with ice-cold phosphate buffered saline (PBS) containing 1 mM sodium fluoride and 1 mM sodium orthovanadate and homogenized in radioimmunoprecipitation assay buffer (0.1% sodium dodecyl sulfate (SDS), 0.5% sodium deoxycholate, 1% NP-40, 1 mM sodium orthovanadate, 50 mM β-glycerophosphate and 1× protease inhibitor cocktail). Samples were centrifuged 10,000×g for 10 minutes, and protein concentrations of supernatants were determined by Bradford assay (BioRad Protein Dye Reagent). Equal amounts of protein were separated on a 10% polyacrylamide gel and blotted to a nitrocellulose membrane. Immunoblot analysis was performed using Phospho-Akt, Akt, phospho-ERK1/2 or ERK-1/2 antibodies.

[7] = system: phospho-Akt; test: Western blot of Akt phosphorylation in HUVEC; assay type: cell-based, human; details: for increase in Akt phosphorylation levels: 100 nM, after 5 minutes; for time of maximum Akt phosphorylation levels: data not shown; for Akt phosphorylation with Pertussis toxin: incubation with Pertussis toxin
Excerpt: as §1

[8] = system: HUVEC; test: apoptosis induced by serum deprivation in HUVEC (DNA fragmentation); assay type: cell-based, human; details: for Emax at 0.01 µM: Homo sapiens, HUVEC, 10 nM, 8 hours serum deprivation, read-out: inhibition of DNA fragmentation (maximum effect); for anti-apoptotic effect with Pertussis toxin: Pertussis toxin treatment
Description: Since ERK-1 and ERK-2 activation is necessary for the survival effect of S1P in endothelial cells, it was tested if FTY720-P and its analog (R)-AFD could prevent apoptosis induced by serum deprivation in HUVEC. In this test, HUVEC cells were labeled with {methyl-^3H}-thymidine (1 μCi/ml) for 16 hours. Then, they were washed and 0.1% ffa-BSA M199 containing the different treatments was added. After 8 hours, fragmented DNA was solubilized and quantified as described.

[9] = system: Mouse embryonic endothelial cells; test: VEGF-induced paracellular permeability (Transwell, FITC-dextran); assay type: cell-based; details: 100 nM, 1 hr pretreatment, 45 minute time point, VEGF 50 ng/ml
Description: Several studies have shown that VE-cadherin could be an important determinant of vascular permeability. […] A cellular system was used to assess the effects of S1P, FTY720-P and (R)-AFD on vascular permeability. Mouse embryonic endothelial cells (5×10^4) were cultured for 2 days in Transwell polycarbonate filters (6.5 mm diameter, 0.4 μm pores; Costar). Culture medium was replaced with serum/phenol red-free DMEM (HEPES buffer, L-glutamine, and pyridoxine hydrochloride) (0.1 mL upper chamber and 0.6 mL lower chamber). […] FITC-dextran (average MW=2,000 kDa), was added to the upper compartment either in the absence or presence of murine recombinant VEGF (50 ng/ml). Media from lower wells were taken after indicated time periods (5-45 minutes). Samples were placed in black solid bottom 96 well plates (Costar) and fluorescence intensities were measured using CytoFluor(R) fluorescence multi-well plate reader (Applied Biosystems) at 488 nm excitation. Data=mean±SE of duplicates. N=2. *p<0.01 VEGF vs. untreated. #p<0.01 treatments+VEGF vs. VEGF alone.

SMILES	migration induced by conditioned medium [2]	induction of endothelial cell migration [2]	VE-cadherin localization at cell-cell contact regions / translocation to adherens junctions [3]	inhibition of vascular permeability induced by VEGF [5]	increase in ERK-1/2 phosphorylation levels [6]	ERK-1/2 phosphorylation (in words) ([6]; 5 minute stimulation)	time of maximum ERK phosphorylation levels [6]	ERK-1 and ERK-2 phosphorylation with Pertussis toxin [6]	increase in Akt phosphorylation levels [7]	Akt phosphorylation (in words) ([7]; 5 minute stimulation)	time of maximum Akt phosphorylation levels [7]	Akt phosphorylation with Pertussis toxin [7]	concentration of maximum anti-apoptotic effect [8]	Emax at 0.01 µM [8]	anti-apoptotic effect with Pertussis toxin [8]	concentration of maximum effect on migration [2]	fold induction at 0.01 µM ([2]; Homo sapiens, HUVEC)	induced migration in presence of Pertussis toxin [2]	inhibition of VEGF-induced paracellular permeability [9]	further results
CCCCCCCOc1ccc(CC[C@@](C)(N)CO)cc1 [(R)-AAL, 2-amino-2-methyl-4-[4-heptoxy-phenyl]butane-1-ol]	activated into potent chemoattractants for endothelial cells	Neither FTY720 nor its structural analog (R)-AAL induced endothelial cell migration	did not induce VE-cadherin translocation to the adherens junctions	potently inhibited vascular permeability in vivo																specific activity (phosphorylation of the substrate) ([1]; HUVEC total cell extract, 100 μM FTY720 or AAL, 20 μM sphingosine, 30 minutes): 15 ± 0.93 pmol/mg/min; specific activity (phosphorylation of the substrate) ([4]; SK2-[…]T, 100 μM FTY720 or (R)-AAL, 20 μM sphingosine): 199.5 pmol/min/mg
CCCCCCCOc1ccc(CC[C@@](C)(N)COP(=O)(O)O)cc1 [(R)-AFD]		potent chemoattractants for HUVEC	increase in VE-cadherin localization at the cell-cell contact regions		8.2 fold	higher than the one induced by S1P	5 min	blocked by incubation with Pertussis toxin	4.5 fold	higher than the one induced by S1P	5 min	blocked by incubation with Pertussis toxin	10 nM	~70%	blocked by Pertussis toxin treatment	10 nM	9	blocked by Pertussis toxin	profoundly inhibited	
CCCCCCCOc1ccc(CC[C@](C)(N)CO)cc1 [(S)-AAL, 2-amino-2-methyl-4-[4-heptoxy-phenyl]butane-1-ol]	did not induce migration after incubation with endothelial cells			but not (S)-AAL also potently inhibited vascular permeability in vivo																phosphorylation of the substrate ([1]; HUVEC kinase activity, 100 μM): undetectable; phosphorylation of the substrate ([4]; SK2-[…]T extract, 100 μM): barely detectable
CCCCCCCCCCCCC/C=C/[C@@H](O)[C@@H](N)COP(=O)(O)O [S1P, Sphingosine-1-phosphate, reference compound]			comparable to that observed for S1P				5 min	blocked by incubation with Pertussis toxin			5 min	blocked by incubation with Pertussis toxin			blocked by Pertussis toxin treatment				profoundly inhibited	fold induction at 0.1 µM ([2]; Homo sapiens, HUVEC, read-out: migration, fold induction): 14
CCCCCCCOc1ccc(CC[C@@](C)(N)CO)cc1 (stereo in doubt) [AAL, 2-amino-2-methyl-4-[4-heptoxy-phenyl]butane-1-ol]																				ERK-1/2 phosphorylation (in words) [6]: did not induce phospho-Akt or phospho-ERK-1/2 levels; Akt phosphorylation (in words) [7]: did not induce phospho-Akt or phospho-ERK-1/2 levels
CCCCCCCCc1ccc(CCC(N)(CO)COP(=O)(O)O)cc1 (stereo not drawn) [FTY720-P]		potent chemoattractants for HUVEC	increase in VE-cadherin localization at the cell-cell contact regions		9.3 fold	higher than the one induced by S1P	5 min	blocked by incubation with Pertussis toxin	3.7 fold	higher than the one induced by S1P	5 min	blocked by incubation with Pertussis toxin	10 nM	~70%	blocked by Pertussis toxin treatment	10 nM	13	blocked by Pertussis toxin	profoundly inhibited	
